In patent US8518889B2, “Method of treating cancer with antibodies against long-form leukotriene B4 receptor BLT2” (Korea University Research & Business Foundation, priority 2007, dated 2013):

Experiments:
253J-BV cells [1] = test: [3H]-thymidine incorporation assay; type: cell-based, human; settings: for inhibition of thymidine incorporation / cell proliferation: 48 hr
Description: Cells were seed in 96-well plate at the density of 1.0×10^4/well. After 24 hr incubation in RPMI 1640 supplemented with 10% FBS, the media was replaced with RPMI 1640 containing 0.5% FBS for 12 hr. After cells were treated with different concentration BLT antagonists. Then [^3H]-thymidine (1 μCi/ml) (PerkinElmer Life Sciences) was added at 12 hr after antagonists treatment and after 36 hr of further incubation, cells were harvested on the filtermat (PerkinElmer Life Science) and filtermat was dried and packaged in the sample bag (PerkinElmer Life Science). Finally, Betaplate scint (PerkinElmer Life Science) was added to the filtermat, and the radioactivity was counted in a liquid scintillation counter (MicroBeta, Wallac/PerkinElmer). […] LY255283 inhibited proliferation by at least 50% at a concentration of 10 μM at 48 hr.

253J-BV cells [2] = test: cell cycle analysis (PI, flow cytometry); type: cell-based, human; settings: 48 hr, RPMI 1640 with 0.5% FBS
Description: The cells grown in 6-well plate were stimulated with 5 μM and 10 μM LY255283, 1 μM U75302 for 48 h in RPMI 1640 containing 0.5% FBS. The cells which were collected by brief trypsinization were fixed overnight with 70% ethanol at 4° C. The cells were resuspended in PBS containing RNase A (100 μg/ml) and incubated for 30 min at 37° C. The cells were stained with propidium iodide (50 μg/ml) (Sigma). Acquisition and analysis was performed by FACS using Cell Quest Alias software (BD Bioscience). […] Cells were treated with BLT antagonist for 48 hours and the cell cycle population was measured by flow cytometry. In brief, cells were plated in 6 well plate and then treated with LY255283, U75302 for 48 hr. At the end of the treatment, the cells were harvested and then centrifuged. The cells fixed in ice-cold 70% ethanol for 24 hr and centrifuged. The pellet were resuspended in 0.5 ml phosphate-buffered saline (PBS) and incubated with Pl 1 mg/ml treatment for 15 min.

[3] = system: 253J-BV bladder cancer cell; test: DNA fragmentation; type: cell-based, human; settings: 10 μM LY255283 or 1 μM U75302, 48 hr
Description: DNA fragmentation was shown by the harvesting of total cellular DNA. Cells were grown in 100 mm plates to 80% confluence with 10% FBS-supplemented medium. […] Cellular DNA from cells extracted incubating with lysis buffer (1 mM EDTA, 10 mM Tris, 120 mM NaCl, 1% SDS and 100 μg/ml proteinase K, pH 8.0) for 12 hr at 50° C. The lysate was centrifuged for 10 min at 13,000×g to separate the fragment DNA from intact chromatin (nuclear pellet). The supernatant was then extracted twice with phenol/chloroform/isoamyl alcohol and precipitated with absolute ethanol. […] After electrophoresis, gels were stained with ethidium bromide, and the DNA was visualized by UV light. Apoptosis is characterized by fragmentation of chromosomal DNA. The effect of BLT antagonists on DNA damage of bladder cancer cell line was investigated.

253J-BV cell line = test: Western blot of apoptotic proteins (PARP, Caspase-9, Bax); type: cell-based, human; settings: 48 hr
Description: Cells were washed with cold PBS and cells were scraped into lysis buffer [20 mM Tris-HCl (pH 7.5), 15 OmM NaCl, 0.5% NP-40, 5 mM EDTA, 1% triton X-100 added protease inhibitors] at 4° C. Harvested protein samples were heated at 95° C. for 5 min and then subjected to SDS-PAGE on acrylamide gels, followed by transfer to polyvinylidene difluoride membranes for 90 min at 100 V. The membranes were blocked for 1 h with Tris-buffered saline (TBS) containing 0.05% (vol/vol) Tween 20 plus 5% (wt/vol) nonfat dry milk and then incubated with appropriate antibodies (PARP, 1:2000 dilution, Caspase-9, 1:2000 dilution, Bax 1:2000 dilution, actin, 1:3000 dilution) in 5% nonfat milk overnight at 4° C. Then membrane bound protein-antibody complex incubated for 2 hr with HRP-conjugated secondary antibody before development with an enhanced chemiluminescence kit (Amersham Biosciences, UK). The poly ADP-ribose polymerase (PARP) cleavage have been well established as important indices of apoptosis.

[4] = system: breast cancer cell line, T47D (ER+), MDA-MB-468 (ER−), MDA-MB-453 (ER−); test: cell growth assay (trypan blue exclusion); type: cell-based, human; settings: LY255283 5, 10 μM; U75302 0.5, 1 μM; 24, 48, 72 hr
Description: (§1) To investigate the effect of BLT2 antagonist, LY255283 and BLT1 antagonist, U75302 on growth of breast cancer, breast cancer cell line, T47D (ER+), MDA-MB-468 (ER−), MDA-MB-453 (ER−) and normal IMR-90 cells were used. Cells were treated with LY255283 and U75302 in a dose-dependent manner and analyzed for cell number using the trypan blue dye exclusion method. Cells were plated at a density of 0.5×10^5 or 5×10^5 cells/well on 12-well plate. After 24 h, cells were incubated in media containing 0.5% serum for 3 hr. Then, cells were treated with U75302 (0.5, 1 μM), LY255283 (5, 10 μM) and incubated at 37° C. for indicated time (24, 48, and 72 hr). To measure the growth of cell, the treated cells were then trypsinized at each time point, and counted by the trypan-blue exclusion method

normal IMR-90 cells = test: cell growth assay (trypan blue exclusion); type: cell-based; settings: LY255283 5, 10 μM; U75302 0.5, 1 μM; 24, 48, 72 hr
Description: as §1

MDA-MB-468 cells [5] = type: cell-based, human; settings: 48 h
Description: Cells were plated a density of 2×10^6 cells/plate in 100-mm plate. After 24 hr, cells incubated in media containing serum-free for 3 hr. Then, cells were treated with U75302 (0.5, 1 μM), LY255283 (5, 10 μM) and incubated at 37° C. for 48 h. Both attached and detached cells were collected and resuspended in a lysis buffer (20 mM Tris/HCl, pH 8.0, 0.1 mM EDTA, 1% SDS, and 0.5 mg/ml proteinase K) and then incubated at 50° C. for overnight. DNA was extracted with phenol/chloroform.

MDA-MB-468 cells [6] = test: Western blotting of caspase-9 and PARP; type: cell-based, human; settings: 48 hr
Description: Cells were plated a density of 2×10^6 cells/plate in 100-mm plate. After 24 h, cells incubated in media containing serum-free for 3 hr. Then, cells were treated with U75302 (0.5, 1 μM), LY255283 ([…]) and incubated at 37° C. for 48 hr. […] Proteins were separated by SDS-PAGE and transferred onto a nitrocellulose membrane. The membrane was blocked with 5% nonfat dry milk in Tris-buffered saline and then incubated with primary antibodies against caspase-9, PARP for 1 h at room temperature. Blots were developed with a peroxidase-conjugated secondary antibody and proteins were visualized by enhanced chemiluminescence (ECL) procedures (Amersham, USA) according to the manufacturer's recommendation

CCc1cc(C(C)=O)c(O)cc1OCCCCCC(C)(C)c1nnn[nH]1 [LY255283, 1-[5-ethyl-2-hydroxy-4-[[6-methyl-6-(1H-tetrazol-5-yl)heptyl]oxy]phenyl]-ethanone]
inhibition of thymidine incorporation / cell proliferation (253J-BV cells [1]): concentration dependent inhibition | inhibition at 10 µM (253J-BV cells [1]; Homo sapiens, 10 μM at 48 hr, read-out: inhibited proliferation): ≥ 50% | cell cycle (253J-BV cells [2]): arresting cell cycle at sub-G1 in dose dependent manner | DNA fragmentation [3]: a ladder like pattern of DNA fragments | pro-apoptotic protein Bax level (253J-BV cell line; 10 μM): significant increased | apoptosis induction (PARP cleavage) (253J-BV cell line): Apoptosis induction was observed | pro-caspase 9 level (253J-BV cell line): reduction of pro-caspase 9 | growth of breast cancer cell lines [4]: significantly inhibits the growth | growth of normal IMR-90 cells (normal IMR-90 cells): did not affect | DNA fragmentation (MDA-MB-468 cells [5]): laddering pattern characteristic of apoptosis | activation of caspase-9 and PARP cleavage (MDA-MB-468 cells [6]): dose-dependent activation of caspase-9 and cleavage of PARP

CCCCC/C=C\C[C@@H](O)/C=C/c1cccc(C[C@@H](O)CCCCO)n1 [U75302]
inhibition of thymidine incorporation / cell proliferation (253J-BV cells [1]): not effect | cell cycle (253J-BV cells [2]): not effect | DNA fragmentation [3]: not observed DNA fragments | level of protein (Western blot) compared with control (253J-BV cell line): no significant change | growth of breast cancer cell lines [4]: had no effect on growth | growth of normal IMR-90 cells (normal IMR-90 cells): had no effect on growth | DNA fragmentation (MDA-MB-468 cells [5]): did not induce DNA fragmentation | activation of caspase-9 and PARP cleavage (MDA-MB-468 cells [6]): did not affect on caspase-9 activation and PARP cleavage
